Measured values reported in patent US11602534B2, “Pyrimidine derivative kinase inhibitors” (HEFEI INSTITUTES OF PHYSICAL SCIENCE, CHINESE ACADEMY OF …, priority 2017, dated 2023).
Where a name gives a salt, the structure may show the parent alone.

Key:
TEL-PDGFRβ-BaF3 = assay: Proliferation of TEL-PDGFRβ-BaF3 cells, CCK8 cell viability assay; type: cell-based; details: Mus musculus, 72 hours, stably expressing PDGFRβ kinase
From the text: (§1) In this example the following cells were used: […] (purchased from ATCC), mouse P210-BaF3 (stably expressing BCR-ABL mutant activated kinase), mouse P210/T315I-BaF3 (stably expressing BCR-ABL/T315I mutant activated kinase), mouse FLT3-ITD-BaF3 (stably expressing FLT3/ITD mutant activated kinase), mouse TEL-FLT3-BaF3 (stably expressing FLT3 kinase), mouse TEL-cKIT-BaF3 (stably expressing cKIT kinase), mouse BaF3-tel/T670I-cKit (stably expressing cKIT/T670I mutant activated kinase), mouse Tel-VEGFR2-BaF3 (stably expressing VEGFR2 kinase), mouse Tel-PDGFRα-BaF3 (stably expressing PDGFRα kinase), mouse Tel-PDGFRβ-BaF3 (stably expressing PDGFRβ kinase), mouse Tel-RET-BaF3 (stably expressing RET kinase). The above cell lines were all constructed by our laboratory according to the following method: the kinase region sequences of human P210, P210/T315I, FLT3/ITD, FLT3, cKIT, cKIT/T670I, VEGFR2, PDGFRα, PDGFRβ, RET were respectively amplified by PCR, and inserted into MSCV-Puro vectors having N-terminal TEL or TPR fragments (Clontech). The vectors were stably transfected into mouse BaF3 cells by means of retrovirus, and the growth factor IL-3 were removed, eventually obtaining cell lines that depend on transferred protein P210, P210/T315I, FLT3/ITD, FLT3, cKIT, cKIT/T670I, VEGFR2, PDGFRα, PDGFRβ, or RET.
(§2) GI50 (unit: μM) was calculated by quantifying the number of living cells based on quantitative measurement of reductive dehydrogenase in living cells with CCK8 cell viability assay kit (Bestbio, China).

BaF3 = assay: Proliferation of BaF3 cells, CCK8 cell viability assay; type: cell-based; details: Mus musculus, 72 hours
From the text: as §1, §2

FLT3-ITD-BaF3 = assay: Proliferation of FLT3-ITD-BaF3 cells, CCK8 cell viability assay; type: cell-based; details: Mus musculus, 72 hours, stably expressing FLT3/ITD
From the text: as §1, §2

TEL-PDGFRα-BaF3 = assay: Proliferation of TEL-PDGFRα-BaF3 cells, CCK8 cell viability assay; type: cell-based; details: Mus musculus, 72 hours, stably expressing PDGFRα kinase
From the text: as §1, §2

P210-BaF3 = assay: Proliferation of P210-BaF3 cells, CCK8 cell viability assay; type: cell-based; details: Mus musculus, 72 hours, stably expressing BCR-ABL mutant activated kinase
From the text: as §1, §2

Tel-FLT3-BaF3 = assay: Proliferation of Tel-FLT3-BaF3 cells, CCK8 cell viability assay; type: cell-based; details: Mus musculus, 72 hours, stably expressing FLT3 kinase
From the text: as §1, §2

Tel-RET-BaF3 = assay: Proliferation of Tel-RET-BaF3 cells, CCK8 cell viability assay; type: cell-based; details: Mus musculus, 72 hours, stably expressing RET kinase
From the text: as §1, §2

Tel-cKit-BaF3 = assay: Proliferation of Tel-cKit-BaF3 cells, CCK8 cell viability assay; type: cell-based, mouse; details: for GI50: Mus musculus, 72 hours, CCK8, stably expressing cKIT kinase
From the text: as §1, §2

Tel-cKit/T670I-BaF3 = assay: Proliferation of Tel-cKit/T670I-BaF3 cells, CCK8 cell viability assay; type: cell-based; details: Mus musculus, 72 hours, stably expressing cKIT/T670I
From the text: as §1, §2

TEL-VEGFR2-BaF3 = assay: Proliferation of TEL-VEGFR2-BaF3 cells, CCK8 cell viability assay; type: cell-based; details: Mus musculus, 72 hours, stably expressing VEGFR2 kinase
From the text: as §1, §2

P210/T315I-BaF3 = assay: Proliferation of P210/T315I-BaF3 cells, CCK8 cell viability assay; type: cell-based; details: Mus musculus, 72 hours, stably expressing BCR-ABL/T315I
From the text: as §1, §2

Compound	GI50 (TEL-PDGFRβ-BaF3) [µM]	GI50 (BaF3) [µM]	GI50 (FLT3-ITD-BaF3) [µM]	GI50 (TEL-PDGFRα-BaF3) [µM]	GI50 (P210-BaF3) [µM]	GI50 (Tel-FLT3-BaF3) [µM]	GI50 (Tel-RET-BaF3) [µM]	GI50 (Tel-cKit-BaF3) [µM]	GI50 (Tel-cKit/T670I-BaF3) [µM]	GI50 (TEL-VEGFR2-BaF3) [µM]	GI50 (P210/T315I-BaF3) [µM]	inhibition of cKIT (in words) (Tel-cKit-BaF3; summary of Table 2)
CNC(=O)c1cc(Oc2ccc(NC(=O)Nc3ccc(Cl)c(C(F)(F)F)c3)cc2)ccn1 [Sorafenib, reference compound]	0.035	6.99	0.0003	0.0006	3.83	0.0009	0.365	0.058	0.112			strongly inhibits
Cc1ccc(NC(=O)Nc2ccc(Oc3cc(N4CCN(C(=O)OC(C)(C)C)C[C@H]4CO)ncn3)cc2)cc1C(F)(F)F [Example 110, (S)-3-(hydroxymethyl)-4-(6-(4-(3-(4-methyl-3-(trifluoromethyl)phenyl)ureido)phenoxy)pyrimidin-4-yl)piperazin-1-tert-butyl Formate]	0.27	> 10	0.182	0.06		4.86	6.21	2.25	5.29	4.62		
CCN1CCN(Cc2ccc(NC(=O)Nc3ccc(Oc4cc(NCCN)ncn4)cc3)cc2C(F)(F)F)CC1 [Example 109, 1-{4-[6-(2-amino-ethylamino)-pyrimidin-4-yloxy]-phenyl}-3-[4-(4-ethyl-piperazin-1-ylmethyl)-3-trifluoromethyl-phenyl]-urea]	0.392	3.54	0.007	0.013		0.011	0.46	0.999	3.36	0.145		
CN1CCN(Cc2ccc(NC(=O)Nc3ccc(Oc4cc(NCCN)ncn4)cc3)cc2C(F)(F)F)CC1 [Example 108, 1-{4-[6-(2-amino-ethylamino)-pyrimidin-4-yloxy]-phenyl}-3-[4-(4-methyl-piperazin-1-ylmethyl)-3-trifluoromethyl-phenyl]-urea]	0.324	> 10	0.009	0.016		0.011	3.88	0.97	7.82	0.098		
CC[C@@H]1CN(C(=O)OC(C)(C)C)CCN1c1cc(Oc2ccc(NC(=O)Nc3ccc(C)c(C(F)(F)F)c3)cc2)ncn1 [Example 111, (R)-3-ethyl-4-(6-(4-(3-(4-methyl-3-(trifluoromethyl)phenyl)ureido)phenoxy)pyrimidin-4-yl)piperazin-1-tert-butyl formate]	0.69	> 10	0.141	0.19		6.16	> 10	6.05	8.6	1.74		
COc1ccc(CNc2cc(Oc3ccc(NC(=O)Nc4ccc(CN5CCNCC5)c(C(F)(F)F)c4)cc3)ncn2)cc1 [Example 180, 1-{4-[6-(4-methoxy-benzylamino)-pyrimidin-4-yloxy]-phenyl}-3-(4-piperazin-1-ylmethyl-3-trifluoromethyl-phenyl)-urea]	0.315	9.01	0.003	0.112		0.022	0.331	0.33	2.85	0.039	1.72	
CC(=O)Nc1cc(Oc2ccc(NC(=O)Cc3c(Cl)cccc3Cl)cc2)ncn1 [Example 6, N-[4-(6-acetylamino-pyrimidin-4-yloxy)-phenyl]-2-(2,6-dichloro-phenyl)-acetamide]	0.346	> 10	0.063	0.059	> 10	0.663	> 10	> 10	> 10	1.93		
Cc1ccc(NC(=O)Nc2ccc(Oc3cc(NC4CCNCC4)ncn3)cc2)cc1C(F)(F)F [Example 103, 1-(4-methyl-3-trifluoromethyl-phenyl)-3-{4-[6-(piperidin-4-ylamino)-pyrimidin-4-yloxy]-phenyl}-urea]	0.355	> 10	0.19	0.07		0.48	> 10	3.22	9.53	2.89		

Further lines, with some results ahead:

GI50 (TEL-PDGFRβ-BaF3) [µM]	GI50 (BaF3) [µM]	GI50 (FLT3-ITD-BaF3) [µM]	GI50 (TEL-PDGFRα-BaF3) [µM]	GI50 (P210-BaF3) [µM]	GI50 (Tel-FLT3-BaF3) [µM]	GI50 (Tel-RET-BaF3) [µM]	GI50 (Tel-cKit-BaF3) [µM]	GI50 (Tel-cKit/T670I-BaF3) [µM]	GI50 (TEL-VEGFR2-BaF3) [µM]	GI50 (P210/T315I-BaF3) [µM]	Compound	inhibition of cKIT (in words) (Tel-cKit-BaF3; summary of Table 2)
0.048	> 10	0.061	0.013	> 10	0.667	> 10	> 10	> 10	0.734		CC(=O)Nc1cc(Oc2ccc(NC(=O)Cc3ccccc3I)cc2)ncn1 [Example 4, N-[4-(6-acetylamino-pyrimidin-4-yloxy)-phenyl]-2-(2-iodo-phenyl)-acetamide]	
0.195	9.67	0.086	0.014		0.2	2.75	0.99	2.16	0.323		Cc1ccc(NC(=O)Nc2ccc(Oc3cc(N4CCNC[C@H]4C)ncn3)cc2)cc1C(F)(F)F [Example 105, (R)-1-(4-methyl-3-(trifluoromethyl)phenyl)-3-(4-((6-(2-methylpiperazin-1-yl)pyrimidin-4-yl)oxy)phenyl)urea]	
0.051	4.12	0.058	0.023		0.599	3.82	1.07	0.886	0.39		Cc1ccc(NC(=O)Nc2ccc(Oc3cc(N[C@H](C)CNC(=O)OC(C)(C)C)ncn3)cc2)cc1C(F)(F)F [Example 112, (R)-(2-((6-(4-(3-(4-methyl-3-(trifluoromethyl)phenyl)ureido)phenoxy)pyrimidin-4-yl)amino)propyl)aminotert-butyl Formate]	
0.17	> 10	0.259	0.086		0.638	> 10	3.22	8.54	1.26		Cc1ccc(NC(=O)Nc2ccc(Oc3cc(N[C@H](C)CN)ncn3)cc2)cc1C(F)(F)F [Example 113, (R)-1-(4-((6-((1-aminoprop-2-yl)amino)pyrimidin-4-yl)oxy)phenyl)-3-(4-methyl-3-(trifluoromethyl)phenyl)urea]	
0.19	9.87	0.413	0.052		2.19	3.97	2.12	4.25	2.28		Cc1ccc(NC(=O)Nc2ccc(Oc3cc(N4CCN(C(=O)CC(C)(C)C)C[C@H]4C)ncn3)cc2)cc1C(F)(F)F [Example 115, (R)-1-(4-((6-(4-(3,3-dimethylbutyryl)-2-methylpiperazin-1-yl)pyrimidin-4-yl)oxy)phenyl)-3-(4-methyl-3-(trifluoromethyl)phenyl)urea]	
0.03	6.05	0.037	0.005		1.09	3.83	0.287	1.01	1.33		Cc1ccc(NC(=O)Nc2ccc(Oc3cc(N4CCOC[C@H]4C)ncn3)cc2)cc1C(F)(F)F [Example 114, (R)-1-(4-methyl-3-(trifluoromethyl)phenyl)-3-(4-((6-(3-methylmorpholino)pyrimidin-4-yl)oxy)phenyl)urea]	
0.173	8.48	0.29	0.014		0.67	3.62	1.8	5.13	2.89		Cc1ccc(NC(=O)Nc2ccc(Oc3cc(N4CCNCC4C)ncn3)cc2)cc1C(F)(F)F (stereo not shown) [Example 104, 1-{4-[6-(2-methyl-piperazin-1-yl)-pyrimidin-4-yloxy]-phenyl}-3-(4-methyl-3-trifluoromethyl-phenyl)-urea]	
